This note sets out measurements from patent publication US20260109721A1, “IONIZABLE CATIONIC LIPIDS INCORPORATING SILICON: SYNTHESIS AND LNP FORMULATION” (priority 2023, published 2026).

A short description of series [1]: LNP size, PDI and zeta potential by Dynamic Light Scattering (Method A). The class given is physicochemical. Particulars: LNP formulated with the lipid, DLS. The method, boiled down: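 LNPs formed by microfluidic mixing of ethanolic lipid mix with Luc mRNA in 10 mM citrate pH 4.0, about 12 ml/min total flow at 3:1 ratio. Particle size, PDI and zeta potential then measured by dynamic light scattering.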

For another series, the system named is HeLa cells. The experiment in a line: Transfection efficiency with Luciferase (SecNLuc) mRNA, Nano-Glo assay (Method A). It counts as cell-based. The note with it: Luc mRNA, 24 h, luminescence; for Transfection 10 ng mRNA: 10 ng mRNA/well; for Transfection 50 ng mRNA: 50 ng mRNA/well; for Transfection 100 ng mRNA: 100 ng mRNA/well. The method, boiled down:
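LNPs formulated by Method A carried SecNLuc mRNA at 100, 50 or 10 ng/well onto HeLa cells at 80% confluence, in triplicate. After 24 h, secreted NanoLuc in the medium was measured by Nano-Glo luminescence about 3 min after reagent addition.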

Take `CCCCC/C=C\C/C=C\CCCCCCCCOC(CCCCCCC/C=C\C/C=C\CCCCC)O[Si](C)(C)OCCCCCCN(CCO)CCN(CCO)CCCCCCO[Si](C)(C)OC(CCCCCCC/C=C\C/C=C\CCCCC)OCCCCCCCC/C=C\C/C=C\CCCCC` (stereo not drawn) [Example 71, (26Z,29Z)-16-((8Z,11Z)-heptadeca-8,11-dien-1-yl)-3-((20Z,23Z)-10-((8Z,11Z)-heptadeca-8,11-dien-1-yl)-8,8-dimethyl-7,9,11-trioxa-8-silanonacosa-20,23-dien-1-yl)-6-(2-hydroxyethyl)-14,14-dimethyl-13,15,17-trioxa-3,6-diaza-14-silapentatriaconta-26,29-dien-1-ol]: in series [1], the PDI is 0.103, the “Size (nm)” value was determined as 166.6 nm and the “Zeta potential (mV)” value was −11.09 mV. For the same compound, in the series with HeLa cells, the “Transfection 10 ng mRNA” value came out at 3.24E+04, the “Transfection 50 ng mRNA” value is given as 9.78E+05 and the “Transfection 100 ng mRNA” value is 5.19E+06.
For the compound `CCCCCCCC/C=C\CCCCCCCC(OCC(CCCCCCCC)SCCCCC)O[Si](C)(C)OCCCCCCN(CCO)CCO` (stereo not drawn) [Example 72, (Z)-13-(heptadec-8-en-1-yl)-3-(2-hydroxyethyl)-11,11-dimethyl-16-octyl-10,12,14-trioxa-17-thia-3-aza-11-siladocosan-1-ol], in series [1], the PDI is 0.17, the “Size (nm)” value is reported as 84.37 nm and the “Zeta potential (mV)” value is listed as −14.24 mV. Further, in the series with HeLa cells, the “Transfection 10 ng mRNA” value is recorded as 2.05E+03, the “Transfection 50 ng mRNA” value is given as 8.79E+04 and the “Transfection 100 ng mRNA” value was found to be 3.60E+05.
Take `CCCCCCCC/C=C\CCCCCCCC(OCC(CCCCCCCC)SCCCCCCCCCC)O[Si](C)(C)OCCCCCCN(CCO)CCO` (stereo not drawn) [Example 73, (Z)-13-(heptadec-8-en-1-yl)-3-(2-hydroxyethyl)-11,11-dimethyl-16-octyl-10,12,14-trioxa-17-thia-3-aza-11-silaheptacosan-1-ol]: in series [1], the PDI is 0.16, the “Size (nm)” value is 86.3 nm and the “Zeta potential (mV)” value is listed as −17.46 mV. In the series with HeLa cells, the “Transfection 10 ng mRNA” value was determined as 6.90E+01, the “Transfection 50 ng mRNA” value is given as 9.88E+02 and the “Transfection 100 ng mRNA” value stood at 4.08E+03.
For the compound `CCCCCCCC/C=C\CCCCCCCC(OCCCCCCCCCCCC1CCCCC1)O[Si](C)(C)OCCCCCCN(CCO)CCO` (stereo not drawn) [Example 74, (Z)-25-cyclohexyl-13-(heptadec-8-en-1-yl)-3-(2-hydroxyethyl)-11,11-dimethyl-10,12,14-trioxa-3-aza-11-silapentacosan-1-ol], in series [1], the PDI amounted to 0.19, the “Size (nm)” value amounted to 73.11 nm and the “Zeta potential (mV)” value is recorded as −9.76 mV. For the same compound, in the series with HeLa cells, the “Transfection 10 ng mRNA” value is 2.47E+03, the “Transfection 50 ng mRNA” value is 3.87E+04 and the “Transfection 100 ng mRNA” value was 1.11E+05.
With `CCCCCCCC/C=C\CCCCCCCC(OCCC(C)CCCC(C)CCCC(C)CCCC(C)C)O[Si](C)(C)OCCCCCCN(CCO)CCO` (stereo not drawn) [Example 75, (Z)-13-(heptadec-8-en-1-yl)-3-(2-hydroxyethyl)-11,11,17,21,25,29-hexamethyl-10,12,14-trioxa-3-aza-11-silatriacontan-1-ol], in series [1], the PDI amounted to 0.18, the “Size (nm)” value worked out at 76.35 nm and the “Zeta potential (mV)” value is given as −13.40 mV. Besides, in the series on HeLa cells, the “Transfection 10 ng mRNA” value was determined as 1.68E+03, the “Transfection 50 ng mRNA” value is recorded as 2.82E+04 and the “Transfection 100 ng mRNA” value was determined as 1.07E+05.
Take `CCCCCCCC/C=C\CCCCCCCC(OCCCCCCCCCCCCCCC(C)C)O[Si](C)(C)OCCCCCCN(CCO)CCO` (stereo not drawn) [Example 76, (Z)-13-(heptadec-8-en-1-yl)-3-(2-hydroxyethyl)-11,11,29-trimethyl-10,12,14-trioxa-3-aza-11-silatriacontan-1-ol]: in series [1], the PDI amounted to 0.2, the “Size (nm)” value worked out at 108.4 nm and the “Zeta potential (mV)” value is given as −19.39 mV. Further, in the series with HeLa cells, the “Transfection 10 ng mRNA” value was determined as 3.30E+03, the “Transfection 50 ng mRNA” value came to 6.71E+04 and the “Transfection 100 ng mRNA” value came to 3.34E+05.
`CCCCC/C=C\C/C=C\CCCCCCCCOC(CCCCCCC/C=C\C/C=C\CCCCC)O[Si](C)(C)OCCCCCCN(C)[C@H](CO)Cc1ccccc1` (stereo partly drawn) [Example 77, (2S,23Z,26Z)-2-benzyl-13-((8Z,11Z)-heptadeca-8,11-dien-1-yl)-3,11,11-trimethyl-10,12,14-trioxa-3-aza-11-siladotriaconta-23,26-dien-1-ol]: in series [1], the PDI worked out at 0.05, the “Size (nm)” value amounted to 90.59 nm and the “Zeta potential (mV)” value is on record as −10.95 mV. In the series on HeLa cells, the “Transfection 10 ng mRNA” value turned out to be 3.44E+02, the “Transfection 50 ng mRNA” value stood at 2.55E+03 and the “Transfection 100 ng mRNA” value was found to be 6.09E+03.
`CCCCCCCC/C=C\CCCCCCCCOC(CCCCCCC/C=C\CCCCCCCC)O[Si](C)(C)OCCCCCCN(C)[C@H](CO)Cc1ccccc1` (stereo partly drawn) [Example 78, (2S,Z)-2-benzyl-13-((Z)-heptadec-8-en-1-yl)-3,11,11-trimethyl-10,12,14-trioxa-3-aza-11-siladotriacont-23-en-1-ol]: in series [1], the PDI turned out to be 0.10, the “Size (nm)” value was 92.14 nm and the “Zeta potential (mV)” value is −19.77 mV. Also, in the series on HeLa cells, the “Transfection 10 ng mRNA” value is 2.45E+03, the “Transfection 50 ng mRNA” value is 1.55E+04 and the “Transfection 100 ng mRNA” value is given as 3.54E+04.
For `CCCCC/C=C\C/C=C\CCCCCCCCOC(CCCCCCC/C=C\C/C=C\CCCCC)O[Si](C)(C)OCCCCCCN(C)C` (stereo not drawn) [Example 79, (20Z,23Z)-10-((8Z,11Z)-heptadeca-8,11-dien-1-yl)-N,N,8,8-tetramethyl-7,9,11-trioxa-8-silanonacosa-20,23-dien-1-amine], in series [1], the PDI came out at 0.09, the “Size (nm)” value is reported as 102.1 nm and the “Zeta potential (mV)” value is −2425 mV. In the series with HeLa cells, the “Transfection 10 ng mRNA” value is reported as 2.45E+03, the “Transfection 50 ng mRNA” value is 8.30E+04 and the “Transfection 100 ng mRNA” value was 2.01E+05.
Turning to `CCCCC/C=C\C/C=C\CCCCCCCCO[Si](C)(C)OC(CCCCCCC/C=C\C/C=C\CCCCC)OCCCN(C)C` (stereo not drawn) [Example 80, (17Z,20Z)-5-((8Z,11Z)-heptadeca-8,11-dien-1-yl)-N,N,7,7-tetramethyl-4,6,8-trioxa-7-silahexacosa-17,20-dien-1-amine], in series [1], the PDI amounted to 0.11, the “Size (nm)” value amounted to 90.19 nm and the “Zeta potential (mV)” value is on record as −26.51 mV. Also, in the series on HeLa cells, the “Transfection 10 ng mRNA” value was found to be 1.90E+01, the “Transfection 50 ng mRNA” value is recorded as 1.25E+02 and the “Transfection 100 ng mRNA” value worked out at 5.41E+02.
Consider `CCCCC/C=C\C/C=C\CCCCCCCCO[Si](C)(C)OC(CCCCCCC/C=C\CCCCCCCC)OCCCN(C)C` (stereo not drawn) [Example 81, (17Z,20Z)-5-((Z)-heptadec-8-en-1-yl)-N,N,7,7-tetramethyl-4,6,8-trioxa-7-silahexacosa-17,20-dien-1-amine], for which, in series [1], the PDI worked out at 0.10, the “Size (nm)” value is listed as 104 nm and the “Zeta potential (mV)” value was −25.24 mV. In the series on HeLa cells, the “Transfection 10 ng mRNA” value is 1.57E+02, the “Transfection 50 ng mRNA” value came out at 5.31E+02 and the “Transfection 100 ng mRNA” value is listed as 5.71E+02.
Regarding `CCCCC/C=C\C/C=C\CCCCCCCCOC(CCCCCCC/C=C\C/C=C\CCCCC)O[Si](C)(C)O[Si](C)(C)CCCCCCN(CCO)CCO` (stereo not drawn) [Example 82, (24Z,27Z)-14-((8Z,11Z)-heptadeca-8,11-dien-1-yl)-3-(2-hydroxyethyl)-10,10,12,12-tetramethyl-11,13,15-trioxa-3-aza-10,12-disilatritriaconta-24,27-dien-1-ol], in series [1], the PDI was 0.26, the “Size (nm)” value amounted to 97.5 nm and the “Zeta potential (mV)” value is recorded as −16.31 mV. For the same compound, in the series on HeLa cells, the “Transfection 10 ng mRNA” value is on record as 1.16E+03, the “Transfection 50 ng mRNA” value came out at 7.26E+03 and the “Transfection 100 ng mRNA” value came to 3.59E+04.
In the case of `CCCCCCCC/C=C\CCCCCCCCOC(=O)C(C)(C)CC(OCCCCCCCC/C=C\CCCCCCCC)O[Si](C)(C)OCCCCCCN(CCO)CCO` (stereo not drawn) [Example 84, (Z)-octadec-9-en-1-yl 1-hydroxy-3-(2-hydroxyethyl)-11,11,15,15-tetramethyl-13-(((Z)-octadec-9-en-1-yl)oxy)-10,12-dioxa-3-aza-11-silahexadecan-16-oate], in series [1], the PDI was 0.15, the “Size (nm)” value is reported as 71.7 nm and the “Zeta potential (mV)” value is reported as −16.66 mV. In the series on HeLa cells, the “Transfection 10 ng mRNA” value is reported as 3.08E+03, the “Transfection 50 ng mRNA” value worked out at 5.69E+04 and the “Transfection 100 ng mRNA” value is 2.00E+05.
With `CCCCCCCC/C=C\CCCCCCCCOC(=O)C(C)(C)CC(OCCCCCCCC/C=C\CCCCCCCC)O[Si](C)(C)OCCCCCCN1CCOCC1` (stereo not drawn) [Example 85, (Z)-octadec-9-en-1-yl 4-((dimethyl((6-morpholinohexyl)oxy)silyl)oxy)-2,2-dimethyl-4-(((Z)-octadec-9-en-1-yl)oxy)butanoate], in series [1], the PDI turned out to be 0.1, the “Size (nm)” value is recorded as 96.37 nm and the “Zeta potential (mV)” value is listed as −14.54 mV. Besides, in the series with HeLa cells, the “Transfection 10 ng mRNA” value turned out to be 4.67E+00, the “Transfection 50 ng mRNA” value came to 3.23E+01 and the “Transfection 100 ng mRNA” value was 8.37E+01.
With `CCCCCCCC/C=C\CCCCCCCCOC(=O)C(C)(C)CC(OCCCCCCCC/C=C\CCCCCCCC)O[Si](C)(C)OCCCCCCN(CCCCO)CCCCO` (stereo not drawn) [Example 86, (Z)-octadec-9-en-1-yl 18-hydroxy-14-(4-hydroxybutyl)-2,2,6,6-tetramethyl-4-(((Z)-octadec-9-en-1-yl)oxy)-5,7-dioxa-14-aza-6-silaoctadecanoate], in series [1], the PDI is 0.25, the “Size (nm)” value is recorded as 109.7 nm and the “Zeta potential (mV)” value was −13.69 mV. Moreover, in the series on HeLa cells, the “Transfection 10 ng mRNA” value was 3.47E+04, the “Transfection 50 ng mRNA” value is on record as 4.82E+05 and the “Transfection 100 ng mRNA” value is on record as 1.37E+06.
